Assays:
[1] = biological target: T1, rat liver 3-Hydroxy-3-methylglutary-Coenzyme A Reductase (Rattus norvegicus, UniProt P51639); test: Assay for rat liver 3-Hydroxy-3-methylglutary-Coenzyme A Reductase Activity (in vitro); type: biochemical; settings: enzyme solubilized from rat liver microsomes, pH 7.4, 37° C., 20 minutes
T1 construct: from tissue; host or cells: rat liver microsomes (solubilized, purified through second ammonium sulfate precipitation)
T1 sequence (P51639 1-887): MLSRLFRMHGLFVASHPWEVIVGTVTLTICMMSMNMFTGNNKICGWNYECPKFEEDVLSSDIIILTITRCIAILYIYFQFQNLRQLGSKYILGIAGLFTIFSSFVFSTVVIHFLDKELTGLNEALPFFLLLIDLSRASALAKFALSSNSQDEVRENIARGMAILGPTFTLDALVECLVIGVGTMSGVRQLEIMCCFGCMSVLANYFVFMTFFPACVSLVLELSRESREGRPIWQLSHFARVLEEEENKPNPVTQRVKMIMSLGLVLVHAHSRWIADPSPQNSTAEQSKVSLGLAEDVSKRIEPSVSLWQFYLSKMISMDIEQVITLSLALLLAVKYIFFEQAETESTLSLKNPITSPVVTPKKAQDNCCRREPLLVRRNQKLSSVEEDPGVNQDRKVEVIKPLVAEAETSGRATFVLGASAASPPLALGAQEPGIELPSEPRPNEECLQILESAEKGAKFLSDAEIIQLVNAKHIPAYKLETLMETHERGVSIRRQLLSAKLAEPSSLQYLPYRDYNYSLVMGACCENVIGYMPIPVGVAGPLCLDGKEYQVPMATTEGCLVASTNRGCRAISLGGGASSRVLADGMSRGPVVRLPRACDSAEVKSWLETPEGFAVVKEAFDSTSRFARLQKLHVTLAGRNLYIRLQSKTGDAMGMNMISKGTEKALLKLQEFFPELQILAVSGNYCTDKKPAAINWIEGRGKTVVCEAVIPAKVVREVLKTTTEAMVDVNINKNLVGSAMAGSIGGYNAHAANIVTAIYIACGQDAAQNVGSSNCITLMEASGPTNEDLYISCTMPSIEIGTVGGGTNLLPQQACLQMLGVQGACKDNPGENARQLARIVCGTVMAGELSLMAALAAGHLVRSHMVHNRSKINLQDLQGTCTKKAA
Description: (1) Test 1 [Assay for rat liver 3-Hydroxy-3-methylglutary-Coenzyme A Reductase Activity (in vitro)]
Five μl or an enzyme solution, solubilized from rat liver microsomes and purified through the second ammonium sulfate precipitation step, is added to 35 μl of a reaction mixture containing 1.11 kBg(=0.03 μCi) or 3-hydroxy-3-metyhl [3-^14 C] glutary coenzyme A, 100 mM potassium phosphate buffer, pH 7.4, 10 mM ethylenediaminetetraacetic acid (EDTA), 10 mM dithiothreitol with or without the graded concentrations of the test compound. The reaction is started by addition of 10 μl of 25 mM β-nicotinamide adenine dinucleotide phosphate, reduced form (NADPH). The mixture is incubated at 37° C. for 20 minutes. The reaction is terminated by addition of 10 μl of 2N hydrochloric acid. After an additional incubation for 15 minutes at 37° C., a 20 μl aliquot of the mixture is applied to a Silica Gel 60 F-254 plate (made by Merck & Co., Inc.). The chromatograms are developed in benzene/acetone (1:1). Sections of the thin layer plates where the mevalonolactone is located are scraped and the radioactivity are counted.

Sterol Synthesis = test: Assay for Sterol Synthesis in Rats (in vivo); parameters: species or system Male SD rats; settings: dose 10.0 mg/kg, oral intubation, [1-^14 C] acetate i.p. 1 hour after compound, blood after 50 minutes
Description: (2) Test 2 [Assay for Sterol Synthesis in Rats (in vivo)]
Male SD rats are administered the test compound by oral intubation. One hour after compound administration, the rats are injected intraperitoneally with sodium [1-^14 C] acetate at 3.7 MBq/kg (=100 μCi/kg). After 50 minutes, 2.5 ml of blood samples are taken by cardiac puncture under short-term ether anesthesia. The plasma, obtained by centrifugation, is hydrolyzed and nonsaponifiable lipids are extracted with the petroleum ether. Sterols are isolated from these extracts as digitonide, dissolved in 1ml of methanol and the radioactivity is counted.

Row | IC50 [1] [µM] | Structure (SMILES) | Inhibition (%) (Sterol Synthesis)
1 | 0.0535 | COc1cc(F)ccc1-c1c(/C=C/[C@@H](O)C[C@@H](O)CC(=O)O)n2c3c(cccc13)CCC2(C)C (relative stereo) [Compound A] | 95.7
2 | 0.0257 | COc1cc(F)ccc1-c1c(/C=C/C(O)CC(O)CC(=O)O)n2c3c(cccc13)CCC2(C)C (single isomer, unassigned) [Compound B, sodium (+)-erythro-(E)-7-[5,6-dihydro-4,4-dimethyl-1-(4-fluoro-2-methoxyphenyl)-4H-pyrrolo[3,2,1-ij]quinolin-2-yl]-3,5-dihydroxyhept-6-enoate] | 

From patent US5164400A, “Pyrroloquinoline compounds” (Fujisawa Pharmaceutical Co., Ltd., priority 1989, dated 1992)
